Source: patent US11014961B2, “Self-labeling miniproteins and conjugates comprising them” (priority 2017, dated 2021)
Residues, ends and D or L forms follow the SMILES beside them. No end group written: not given here. *: point of attachment. X1 = O=C(CCCC[C@@H]1SC[C@@H]2NC(=O)N[C@@H]21)NCCCC[C@H](NC(=O)CCOCCOCCOCCOCCOCCOCCOCCOCCOCCOCCOCCOCCSc1c(F)c(F)c(Sc2c(F)c(F)c(*)c(F)c2F)c(F)c1F)C(=O)O

What was measured:
[1] = Second order rate constant of the reaction between miniprotein (MP) and capture agent (CA), LC-MS TIC peak integration; assay type: biochemical; details: for Rate: Table 4, reaction rates of self-labeling miniprotein sequences; for Second order rate constant: 0.1 mM MP, 0.5 mM CA; for reactivity with the CA (in words) / fold increase of second order rate constant relative to MP01: standard reaction conditions
[2] = target: T1, proteinase K (Parengyodontium album, UniProt P06873); assay: Protease digestion with proteinase K (LC-MS fraction remaining); assay type: in vitro ADME; details: 100 μM peptide; for protease stability in presence of CA (noncovalent): with 10×CA (1 mM CA)
T1 construct: purchased Amresco
T1 sequence (P06873 106-384): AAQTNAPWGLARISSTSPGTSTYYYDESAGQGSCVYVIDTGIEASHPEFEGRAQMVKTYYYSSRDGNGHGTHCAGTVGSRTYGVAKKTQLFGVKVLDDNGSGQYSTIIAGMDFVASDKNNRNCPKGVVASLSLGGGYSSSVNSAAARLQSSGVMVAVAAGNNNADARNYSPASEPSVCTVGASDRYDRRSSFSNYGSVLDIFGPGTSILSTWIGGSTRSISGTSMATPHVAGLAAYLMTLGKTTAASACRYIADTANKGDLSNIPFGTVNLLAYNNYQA
Experimental: Reactions were performed using 100 μM peptide with […] of proteinase K for general cleavage with the addition of 1 mM CA for C11A and C11S digestions. Reactions were quenched with 49.75% water, 49.75% ACN and 0.5% TFA at selection time point and analyzed by LCMS. TIC-based integrated peak areas were used to determine the amount of material in a given time point normalized to the starting amount. These normalized values there then concerted to fraction remaining and plotted as shown.

[3] = Thermal melting followed by circular dichroism at 222 nm; assay type: physicochemical; details: CD at 222 nm
Experimental: All experiments were performed at room temperature (˜23.5° C.) using a Jasco J-1500 spectrometer at MIT's Biophysical Instrumentation Facility (BIF). General conditions used were 10 mM sodium phosphate buffer at pH 7.45 with 5 mM TCEP (if a cysteine was present) with 50 μM peptide. CD measurements with C11S and C11A versions of Gen4 (SEQ ID NOs: 138 and 137, respectively) used the same conditions, without TCEP but with varying amount of CA (50 μM up to 500 μM depending on the desired mole ratio). Temperature melt data was obtained using a 0.5° C./minute ramp with data collected at 222 nm. […] For CD of Gen 1 (MP01; SEQ ID NO: 13), Gen1 H19L (MP01-H19L; SEQ ID NO: 62), Gen1 3 ala (MP01-T8/D10/S14A; SEQ ID NO: 69), Gen2 (MP01-Gen2; SEQ ID NO: 71) and Gen3_1 (MP01-Gen3_1; Gen 2-A17E; SEQ ID NO: 116) in their labeled and nonlabeled states, data was obtained in 12.5 mM HEPES, 50 mM NaCl, 2.5 mM MgCl2 and 2.5 mM CaCl2 at pH 7.45 with 5 mM TCEP at 50 µM peptide with or without ˜55 μM CA that had reacted for ˜2 days at room temperature. The CA labeled versions were not purified post reaction and were analyze in their reaction mixture.
Lacking an apparent cysteine pKa modulation, the basis for Gen4's high reactivity again came into question. Both C11A (SEQ ID NO: 134) and C11S (SEQ ID NO: 135) variants were synthesized and assayed them for CA-mediated structural alteration via CD. […]

[4] = 5 mM TCEP, 1× selection buffer pH 7.4, RT, a: average of three MP concentrations, c: labeled 1-3 times, d: labeled 1-2 times
[5] = 5 mM TCEP, 1× selection buffer pH 7.4, RT

MTATSSSTSRGCRPSTAQVVQRLRGLLLVVG-NH2 [MP26]
Rate [1]: 0.07 M⁻¹ s⁻¹

CSCC[C@H](NC(=O)[C@H](CCCCN)NC(=O)[C@H](Cc1ccc(O)cc1)NC(=O)[C@H](CCCCN)NC(=O)[C@H](CCC(N)=O)NC(=O)[C@H](CC(N)=O)NC(=O)[C@@H](N)CCSC)C(=O)N[C@@H](C)C(=O)N[C@@H](CCCCN)C(=O)N[C@@H](C)C(=O)N[C@@H](CSc1c(F)c(F)c(Sc2c(F)c(F)c(SCCOCCOCCOCCOCCOCCOCCOCCOCCOCCOCCOCCOCCC(=O)N[C@@H](CCCCNC(=O)CCCC[C@@H]3SC[C@@H]4NC(=O)N[C@@H]43)C(=O)O)c(F)c2F)c(F)c1F)C(=O)N[C@@H](Cc1ccccc1)C(=O)N[C@@H](Cc1ccccc1)C(=O)N[C@@H](C)C(=O)N[C@@H](Cc1ccccc1)C(=O)N[C@@H](CC(C)C)C(=O)N[C@@H](CCC(=O)O)C(=O)N[C@@H](Cc1c[nH]cn1)C(=O)N[C@@H](CC(C)C)C(=O)N[C@@H](CCCCN)C(=O)N[C@@H](CCCCN)C(=O)N[C@@H](CCCNC(=N)N)C(=O)N[C@@H](CCCCN)C(=O)N[C@@H](CC(C)C)C(=O)N[C@@H](Cc1ccc(O)cc1)C(=O)N1CCC[C@H]1C(=O)N[C@@H](CCSC)C(=O)N[C@@H](CO)C(=O)NCC(N)=O [Gen4-CA] (H-MNQKYKMAKAC(X1)FFAFLEHLKKRKLYPMSG-NH2)
protease stability [2]: significantly increased protease resistance

MPNYGPLSPSQPSHGYTFWMVPIWDNSHNAAG-NH2 [MP02]
Second order rate constant ([1]; footnote b: construct with the full length C-terminal region (-SGSLGHHHHHHRL)): No Reaction^b
reactivity with the CA (in words) [1]: did not react

MNQKYKMAKASFFAFLEHLKKRKLYPMSG-NH2 [Gen4(C11S)]
protease stability in presence of CA (noncovalent) [2]: improved protease stability
thermal melting behaviour (in words) with CA ([3]; 50 μM peptide with 10×CA (500 μM)): gradually increasing CD signal albeit with a shift to higher temperatures

MNQKYKMAKACFFAFLEHLKKRKLYPMSG-NH2 [MP01-Gen4]
thermal melting behaviour (in words) ([3]; 4-95° C.): broad, gradually increasing trend
reactivity relative to a random cysteine containing peptide [1]: ~4×10^3 times
second order rate constant relative to the initial MP01 scaffold [1]: ~100 times
reaction rate with ammonium sulfate ([1]; 2 μM ammonium sulfate (so in the source)): 3.9 M⁻¹ s⁻¹
reaction rate with sodium chloride ([1]; 2 μM sodium chloride (so in the source)): 6.1 M⁻¹ s⁻¹
reactivity under denaturant guanidinium chloride ([1]; 2-3 M guanidinium chloride, pH 7.45): near complete ablation of reactivity
rate constant with TMAO ([1]; trimethylamine N-oxide (TMAO) at 0.5 μM (so in the source)): ~9.7 M⁻¹ s⁻¹
rate constant with TMAO ([1]; trimethylamine N-oxide (TMAO) at 1 μM (so in the source)): ~7.5 M⁻¹ s⁻¹

MHQKYKMAKACFFAFLAHLAKRKLYPMSG-NH2 [Gen 2-K20A]
reactivity with the CA (in words) [1]: no alteration

MRHYHLTCFQGFRIFRRTVDSLEMEISLG-NH2 [MP18]
Rate [1]: 0.17 M⁻¹ s⁻¹

MRYIYVLRLKSWCGGASARSSPRSCATKLLG [MP09]
Second order rate constant [1, 4]: 0.52 ± 0.01^d M^−1 s^−1
initial rate (biphasic kinetics) ([1]; standard conditions, en route to being labeled twice): 0.52 M⁻¹ s⁻¹

MNQKYKMAKACFFAFLAHLKKRKLYPMSG-NH2 [Gen3_2]
reactivity with the CA (in words) [1]: increased the rate of reaction

MNRIFHKRSTYQMVFGRCSDFTSTYHVLISYG-NH2 [MP25]
Rate [1]: 0.25 M⁻¹ s⁻¹

MHLRMIRYLNRRRHLCHVVEIRHGLFASREIG-NH2 [MP16]
Rate [1]: 0.19 M⁻¹ s⁻¹

MHQKYKMTKDCFFSFLAHVKKRKLYPMSG-NH2 [MP01-H19V]
reactivity with the CA (in words) [1]: progressively improved rate constants

MLFMRLTKKTMATKFCPFRRKRKHRERRALYG-NH2 [MP27]
Rate [1]: 0.61 M⁻¹ s⁻¹

MHAKYKMAKACFFAFLAHLKKRKLYPMSG-NH2 [Gen 2-Q3A]
reactivity with the CA (in words) [1]: no alteration

MSSGTHYGILNMVIRCHLVKNQTSQMVVLTTG-NH2 [MP14]
Rate [1]: 0.12 M⁻¹ s⁻¹

MHHYCSKMKRRILMHYLFANTMAHRDLGTNG-NH2 [MP15]
Rate [1]: 10.09 M⁻¹ s⁻¹

MNGHYPCYLITSVLVGATTSGVPVVVHLRVG-NH2 [MP17]
Rate [1]: 0.11 M⁻¹ s⁻¹

KMTKDCFFSFL-NH2 [MP01-T, KMTKDCFFSFL]
Second order rate constant [1, 4]: 0.06 M⁻¹ s⁻¹
reactivity with the CA (in words) [1]: severely diminished activity

MHQKYKMAAACFFAFLAHLKKRKLYPMSG-NH2 [Gen 2-K9A]
reactivity with the CA (in words) [1]: no alteration

MHTSLRSRAKSHSRSFGKCASIYTRYLKMG-NH2 [MP20]
Rate [1]: 1.22 M⁻¹ s⁻¹

MHMHKTTSYRIRVLVGVDVYRMSHTCLTSSSG-NH2 [MP19]
Rate [1]: 0.21 M⁻¹ s⁻¹

MGIVHNATRFPKRCFYSFIATRQSKNSIRVSG-NH2 [MP06]
Second order rate constant [1, 4]: 0.11 ± 0.01 M⁻¹ s⁻¹

MQNSKHRPRRCLRLLPLLRGHLHRMFRERG-NH2 [MP21]
Rate [1]: 2.00 M⁻¹ s⁻¹

MHQKYKMTKDSFFSFLAHHKKRKLYPMSG-NH2 [SEQ ID NO: 91]
reactivity with the CA (in words) [1]: all reactivity was lost

MVKLSGKERTTRNCFFSFLASRRTKKFNNLSG-NH2 [MP12]
Rate [1]: 0.23 M⁻¹ s⁻¹

MRRTPSTRARGRVFLLPTLRFFITLCNLNG-NH2 [MP24]
Rate [1]: 0.02 M⁻¹ s⁻¹

MQHEDLCTWYGFCPSGNFTPRNLRGDSDG [MP08]
Second order rate constant [1, 5]: 0.04 M⁻¹ s⁻¹
Second order rate constant [1, 4]: 0.04^d M^−1 s^−1

MGHLHICMVWRVNTSGHILSVGHKSYSSHKTG-NH2 [MP13]
Rate [1]: 2.41 M⁻¹ s⁻¹

MHQKYKMAKACFFAFLAHLKKRKLYPMSG-NH2 [MP01-Gen2]
fold increase of second order rate constant relative to MP01 [1]: 32.2 fold

MHQKYKMAKACFFAFLAHHKKRKLYPMSG-NH2 [triple alanine variant]
Second order rate constant [1, 5]: 1.82 M⁻¹ s⁻¹
fold increase of second order rate constant relative to MP01 [1]: 6.3 fold

MHQKYKMAKACFFAFLEHLKKRKLYPMSG-NH2 [Gen3_1]
reactivity with the CA (in words) [1]: increased the rate of reaction

MNQKYKMAKAAFFAFLEHLKKRKLYPMSG-NH2 [Gen4(C11A)]
protease stability in presence of CA (noncovalent) [2]: improved protease stability

MTSVTASLLMHFCPIRAHITNKPSFNPSG-NH2 [MP03]
Second order rate constant [1, 4]: 0.04 M⁻¹ s⁻¹

MHQKYKMTKDCFFSFLAHLKKRKLYPMSG-NH2 [MP01-H19L]
fold increase of second order rate constant relative to MP01 [1]: 7.5 fold

MRSTHQRVRRPRNLCSFKHKWLIKFLKTLTG-NH2 [MP22]
Rate [1]: 4.94 M⁻¹ s⁻¹

MKTFSSDQRFSKKCYRIYFHKLRQRNHNTSVG-NH2 [MP07]
Second order rate constant [1, 4]: 0.91 ± 0.14^a M^−1 s^−1

MRTPIKFAPRLSQPFCPFRKQHQLHLHPLIEG-NH2 [MP04]
Second order rate constant [1, 4]: 0.24 ± 0.01 M⁻¹ s⁻¹

MRPCARRDRTLWCPFDSPAWFLLSGFSCG [MP05]
Second order rate constant [1, 5]: 0.93 ± 0.11 M⁻¹ s⁻¹
Second order rate constant [1, 4]: 0.93 ± 0.11^c M^−1 s^−1
